# System: male spontaneously hypertensive rats (SHR)
# Assay: Reduction of Blood Pressure (systolic, tail plethysmographic method, oral)
# Type: in vivo, rat (SHR, Wister Kyoto)
# Details: 50 mg/kg
# Method: Male spontaneously hypertensive rats (SHR, Wister Kyoto) weighing 300 to 350 g were used. Systolic blood pressure was measured indirectly by the tail plethysmographic method in conscious SHR, just prior to, and 1, 2, 4 and 6 hours after oral administration of test drugs. Test drugs, dissolved in deionized water, were administered orally in a volume of 10 ml-solution/kg-rat. Reduction in systolic blood pressure (ΔP, mmHg) was calculated by substracting a systolic blood pressure after administration from that just prior to administration.
# Effect of the compounds of the present invention on reduction of blood pressure was examined according to the method as mentioned hereinbefore.
row,Structure (SMILES),ΔPmax (maximally reduced blood pressure) [mmHg]
1,"CC(CN)NS(=O)(=O)c1cccc2c(O)nccc12 (centres unmarked) [Compound (49), N-(2-amino-1-methylethyl)-1-hydroxy-5-isoquinolinesulfonamide]",33
2,"CCCCC(CN)NS(=O)(=O)c1cccc2c(O)nccc12 (centres unmarked) [Compound (50), N-(1-aminomethylpentyl)-1-hydroxyl-5-isoquinolinesulfonamide]",28
3,"CC(C)C(N)CNS(=O)(=O)c1cccc2c(O)nccc12 (centres unmarked) [Compound (51), N-(2-amino-3-methylbutyl)-1-hydroxy-5-isoquinolinesulfonamide]",71
4,"CCCCN(CCCC)CCCNS(=O)(=O)c1cccc2c(O)nccc12 [Compound (52), N-(3-di-n-butylaminopropyl)-1-hydroxy-5-isoquinolinesulfonamide]",65
5,"CN(CCNS(=O)(=O)c1cccc2c(O)nccc12)C1CCCCC1 [Compound (53), N-[2-(N-cyclohexyl-N-methylamino)ethyl]-1-hydroxy-5-isoquinolinesulfonamide]",56

# Same assay, conditions: 100 mg/kg
row,Structure (SMILES),ΔPmax (maximally reduced blood pressure) [mmHg]
1,"NCCCCNS(=O)(=O)c1cccc2c(O)nccc12 [Compound (48), N-(4-aminobutyl)-1-hydroxy-5-isoquinolinesulfonamide]",51
2,"N=C(N)NCCCCNS(=O)(=O)c1cccc2c(O)nccc12 [Compound (55), N-(4-guanidinobutyl)-1-hydroxy-5-isoquinolinesulfonamide]",38
3,"CC(CNC(=N)N)NS(=O)(=O)c1cccc2c(O)nccc12 (centres unmarked) [Compound (56), N-(2-guanidino-1-methylethyl)-1-hydroxy-5-isoquinolinesulfonamide]",45
4,"CCCCC(CNC(=N)N)NS(=O)(=O)c1cccc2c(O)nccc12 (centres unmarked) [Compound (57), N-(1-guanidinomethylpentyl)-1-hydroxy-5-isoquinolinesulfonamide]",38
5,"CC(C)C(CNS(=O)(=O)c1cccc2c(O)nccc12)NC(=N)N (centres unmarked) [Compound (58), N-(2-guanidino-3-methylbutyl)-1-hydroxy-5-isoquinolinesulfonamide]",41
6,"CC(CNC(=N)N)CNS(=O)(=O)c1cccc2c(O)nccc12 (centres unmarked) [Compound (59), N-(3-guanidino-2-methylpropyl)-1-hydroxy-5-isoquinolinesulfonamide]",52
7,"CC(C)(CCNS(=O)(=O)c1cccc2c(O)nccc12)NC(=N)N [Compound (60), N-(3-guanidino-3-methylbutyl)-1-hydroxy-5-isoquinolinesulfonamide]",61
8,"CC1CN(S(=O)(=O)c2cccc3c(O)nccc23)CCN1 (centres unmarked) [Compound (61), 1-(1-hydroxy-5-isoquinolinesulfonyl)-3-methylpiperazine]",48
9,"CCC1CN(S(=O)(=O)c2cccc3c(O)nccc23)CCN1 (centres unmarked) [Compound (62), 1-(1-hydroxy-5-isoquinolinesulfonyl)-3-ethylpiperazine]",36
10,"CC(C)CC1CN(S(=O)(=O)c2cccc3c(O)nccc23)CCN1 (centres unmarked) [Compound (63), 1-(1-hydroxy-5-isoquinolinesulfonyl)-3-isobutylpiperazine]",48
11,"CC1CN(S(=O)(=O)c2cccc3c(O)nccc23)C(C)CN1 (centres unmarked) [Compound (64), 1-(1-hydroxy-5-isoquinolinesulfonyl)-2,5-dimethylpiperazine]",65

# System: mesenteric artery of a rabbit
# Assay: Relaxation of Mesenteric Artery (KCl-contracted spiral strip)
# Parameters: species or system rabbit of Japanese local variety
# Details: Oryctolagus cuniculus; concentration of the hydrochloride attaining 50% of complete relaxation; rabbit mesenteric artery contracted with KCl; read-out: ED50 (the source's name)
# Method: A rabbit of Japanese local variety weighing about 3 kg was subjected to blood-letting to death. Then, abdomen of the rabbit was dissected to pick up a mesenteric artery. […] Thus, the shrinkage and relaxation of the artery was ready to be measured as a load on the transducer. To the organ bath, KCl was added in an amount which makes the artery shrink at a half length that in 15 to 20 mM aqueous solution. Then, hydrochlorides of the compounds of the present invention were added to the organ bath to observe relaxation effect on the artery.
# Effect of the compounds of the present invention on relaxation of mesenteric artery was examined according to the method as mentioned hereinbefore.
row,Structure (SMILES),EC50 [µM]
1,"NCCCCNS(=O)(=O)c1cccc2c(O)nccc12 [Compound (48), N-(4-aminobutyl)-1-hydroxy-5-isoquinolinesulfonamide]",15
2,"CC(CN)NS(=O)(=O)c1cccc2c(O)nccc12 (centres unmarked) [Compound (49), N-(2-amino-1-methylethyl)-1-hydroxy-5-isoquinolinesulfonamide]",14
3,"CCCCC(CN)NS(=O)(=O)c1cccc2c(O)nccc12 (centres unmarked) [Compound (50), N-(1-aminomethylpentyl)-1-hydroxyl-5-isoquinolinesulfonamide]",7
4,"CC(C)C(N)CNS(=O)(=O)c1cccc2c(O)nccc12 (centres unmarked) [Compound (51), N-(2-amino-3-methylbutyl)-1-hydroxy-5-isoquinolinesulfonamide]",20
5,"CCCCN(CCCC)CCCNS(=O)(=O)c1cccc2c(O)nccc12 [Compound (52), N-(3-di-n-butylaminopropyl)-1-hydroxy-5-isoquinolinesulfonamide]",21
6,"CN(CCNS(=O)(=O)c1cccc2c(O)nccc12)C1CCCCC1 [Compound (53), N-[2-(N-cyclohexyl-N-methylamino)ethyl]-1-hydroxy-5-isoquinolinesulfonamide]",17
7,"N=C(N)NCCCCNS(=O)(=O)c1cccc2c(O)nccc12 [Compound (55), N-(4-guanidinobutyl)-1-hydroxy-5-isoquinolinesulfonamide]",13
8,"CC(CNC(=N)N)NS(=O)(=O)c1cccc2c(O)nccc12 (centres unmarked) [Compound (56), N-(2-guanidino-1-methylethyl)-1-hydroxy-5-isoquinolinesulfonamide]",14
9,"CCCCC(CNC(=N)N)NS(=O)(=O)c1cccc2c(O)nccc12 (centres unmarked) [Compound (57), N-(1-guanidinomethylpentyl)-1-hydroxy-5-isoquinolinesulfonamide]",11
10,"CC(C)C(CNS(=O)(=O)c1cccc2c(O)nccc12)NC(=N)N (centres unmarked) [Compound (58), N-(2-guanidino-3-methylbutyl)-1-hydroxy-5-isoquinolinesulfonamide]",15
11,"CC(CNC(=N)N)CNS(=O)(=O)c1cccc2c(O)nccc12 (centres unmarked) [Compound (59), N-(3-guanidino-2-methylpropyl)-1-hydroxy-5-isoquinolinesulfonamide]",21
12,"CC(C)(CCNS(=O)(=O)c1cccc2c(O)nccc12)NC(=N)N [Compound (60), N-(3-guanidino-3-methylbutyl)-1-hydroxy-5-isoquinolinesulfonamide]",23
13,"CC1CN(S(=O)(=O)c2cccc3c(O)nccc23)CCN1 (centres unmarked) [Compound (61), 1-(1-hydroxy-5-isoquinolinesulfonyl)-3-methylpiperazine]",17
14,"CCC1CN(S(=O)(=O)c2cccc3c(O)nccc23)CCN1 (centres unmarked) [Compound (62), 1-(1-hydroxy-5-isoquinolinesulfonyl)-3-ethylpiperazine]",25
15,"CC(C)CC1CN(S(=O)(=O)c2cccc3c(O)nccc23)CCN1 (centres unmarked) [Compound (63), 1-(1-hydroxy-5-isoquinolinesulfonyl)-3-isobutylpiperazine]",18
16,"CC1CN(S(=O)(=O)c2cccc3c(O)nccc23)C(C)CN1 (centres unmarked) [Compound (64), 1-(1-hydroxy-5-isoquinolinesulfonyl)-2,5-dimethylpiperazine]",21

# Reference: patent publication US4678783A, “Substituted isoquinolinesulfonyl compounds” (Asahi Kasei Kogyo Kabushiki Kaisha, priority 1984, dated 1987)
